Results: patent publication US20060229299A1, “5ht2c Receptor antagonists in the treatment of schizophrenia” (priority 2003, published 2006)

Key:
5-HT2A/D2 = 5-HT2A/D2 receptor affinity ratio; assay type: binding, human; conditions: Table 2; affinity ratio from data of Table 1
5-HT2C/5-HT2A = 5-HT2C/5-HT2A receptor affinity ratio; assay type: binding, human; conditions: Table 2; affinity ratio from data of Table 1
5-HT2C/D2 = 5-HT2C/D2 receptor affinity ratio; assay type: binding, human; conditions: Table 2; affinity ratio from data of Table 1
5-HT6 receptor = 5-HT6 receptor (Rattus norvegicus, UniProt P31388); conditions: cited from earlier work
Sequence of 5-HT6 receptor (P31388 whole entry): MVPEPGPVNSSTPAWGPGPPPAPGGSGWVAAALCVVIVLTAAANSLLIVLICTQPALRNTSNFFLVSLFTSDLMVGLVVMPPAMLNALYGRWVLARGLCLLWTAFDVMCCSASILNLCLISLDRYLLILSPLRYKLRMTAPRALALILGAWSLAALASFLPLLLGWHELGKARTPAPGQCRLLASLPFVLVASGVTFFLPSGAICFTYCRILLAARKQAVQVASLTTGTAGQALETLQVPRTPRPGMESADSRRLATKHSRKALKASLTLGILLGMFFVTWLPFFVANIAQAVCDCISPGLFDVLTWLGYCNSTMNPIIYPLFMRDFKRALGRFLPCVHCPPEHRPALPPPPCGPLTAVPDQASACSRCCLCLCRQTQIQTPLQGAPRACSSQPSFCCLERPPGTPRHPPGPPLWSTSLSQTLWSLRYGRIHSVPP

5-HT7 receptor [1] = biological target: 5-HT7 receptor (Rattus norvegicus, UniProt P32305); conditions: cited from earlier work
Sequence of 5-HT7 receptor (Rattus norvegicus, UniProt P32305) (P32305 whole entry): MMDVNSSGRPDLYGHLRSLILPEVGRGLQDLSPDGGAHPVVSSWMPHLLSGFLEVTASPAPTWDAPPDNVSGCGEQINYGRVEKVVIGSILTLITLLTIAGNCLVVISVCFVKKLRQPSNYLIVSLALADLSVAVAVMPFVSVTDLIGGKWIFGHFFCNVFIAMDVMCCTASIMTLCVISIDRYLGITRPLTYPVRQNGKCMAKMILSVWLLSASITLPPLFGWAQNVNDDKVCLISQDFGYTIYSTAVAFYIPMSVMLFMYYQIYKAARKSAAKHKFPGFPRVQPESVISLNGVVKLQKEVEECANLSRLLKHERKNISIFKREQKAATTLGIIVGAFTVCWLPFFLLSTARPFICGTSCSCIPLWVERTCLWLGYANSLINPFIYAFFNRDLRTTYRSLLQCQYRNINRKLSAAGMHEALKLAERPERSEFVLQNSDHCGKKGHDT

D1 dopamine receptor [2] = biological target: D1 dopamine receptor (Rattus norvegicus, UniProt P18901); conditions: cited from earlier work
Sequence of D1 dopamine receptor (Rattus norvegicus, UniProt P18901) (P18901 whole entry): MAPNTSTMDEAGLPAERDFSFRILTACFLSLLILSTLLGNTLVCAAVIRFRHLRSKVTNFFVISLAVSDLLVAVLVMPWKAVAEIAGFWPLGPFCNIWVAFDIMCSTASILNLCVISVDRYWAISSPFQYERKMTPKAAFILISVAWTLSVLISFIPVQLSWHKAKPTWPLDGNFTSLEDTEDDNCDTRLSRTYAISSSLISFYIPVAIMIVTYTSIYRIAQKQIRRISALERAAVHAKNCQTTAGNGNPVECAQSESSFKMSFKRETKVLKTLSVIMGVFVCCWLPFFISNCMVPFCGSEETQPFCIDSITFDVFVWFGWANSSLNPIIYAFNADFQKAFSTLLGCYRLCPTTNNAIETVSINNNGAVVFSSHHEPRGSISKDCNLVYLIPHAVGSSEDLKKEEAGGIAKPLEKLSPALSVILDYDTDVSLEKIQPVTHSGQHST

D4 dopamine receptor [3] = biological target: T1, D4 dopamine receptor (Rattus norvegicus, UniProt P30729); conditions: cited from earlier work
T1 sequence (P30729 1-387): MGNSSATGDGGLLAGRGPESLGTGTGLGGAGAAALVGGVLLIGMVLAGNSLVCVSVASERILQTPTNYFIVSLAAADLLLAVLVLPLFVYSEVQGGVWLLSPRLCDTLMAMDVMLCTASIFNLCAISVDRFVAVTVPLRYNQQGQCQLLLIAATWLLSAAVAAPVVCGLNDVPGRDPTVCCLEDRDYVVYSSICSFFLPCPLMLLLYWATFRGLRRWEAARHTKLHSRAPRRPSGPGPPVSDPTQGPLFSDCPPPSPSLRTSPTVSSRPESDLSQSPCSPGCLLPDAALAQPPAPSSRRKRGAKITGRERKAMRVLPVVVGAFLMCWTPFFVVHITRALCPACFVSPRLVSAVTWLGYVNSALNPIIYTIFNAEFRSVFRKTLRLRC

[4] = biological target: M2 muscarinic acetylcholine receptor (Homo sapiens, UniProt P08172); conditions: expressed as KD; cited from earlier work
Sequence of M2 muscarinic acetylcholine receptor (P08172 whole entry): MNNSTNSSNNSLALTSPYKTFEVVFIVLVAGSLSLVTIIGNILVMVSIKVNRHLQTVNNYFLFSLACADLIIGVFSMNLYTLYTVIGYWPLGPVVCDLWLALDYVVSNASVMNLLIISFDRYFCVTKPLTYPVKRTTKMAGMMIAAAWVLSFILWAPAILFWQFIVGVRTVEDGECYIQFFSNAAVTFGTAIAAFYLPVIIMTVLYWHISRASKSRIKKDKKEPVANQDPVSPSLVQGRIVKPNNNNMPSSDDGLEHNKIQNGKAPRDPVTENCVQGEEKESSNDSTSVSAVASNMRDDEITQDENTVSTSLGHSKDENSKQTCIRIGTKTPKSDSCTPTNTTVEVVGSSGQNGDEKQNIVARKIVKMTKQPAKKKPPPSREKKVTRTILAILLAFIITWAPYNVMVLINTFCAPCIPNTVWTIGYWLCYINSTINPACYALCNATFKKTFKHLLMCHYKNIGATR

[5] = biological target: M3 muscarinic acetylcholine receptor (Homo sapiens, UniProt P20309); conditions: expressed as KD; cited from earlier work
Sequence of M3 muscarinic acetylcholine receptor (P20309 whole entry): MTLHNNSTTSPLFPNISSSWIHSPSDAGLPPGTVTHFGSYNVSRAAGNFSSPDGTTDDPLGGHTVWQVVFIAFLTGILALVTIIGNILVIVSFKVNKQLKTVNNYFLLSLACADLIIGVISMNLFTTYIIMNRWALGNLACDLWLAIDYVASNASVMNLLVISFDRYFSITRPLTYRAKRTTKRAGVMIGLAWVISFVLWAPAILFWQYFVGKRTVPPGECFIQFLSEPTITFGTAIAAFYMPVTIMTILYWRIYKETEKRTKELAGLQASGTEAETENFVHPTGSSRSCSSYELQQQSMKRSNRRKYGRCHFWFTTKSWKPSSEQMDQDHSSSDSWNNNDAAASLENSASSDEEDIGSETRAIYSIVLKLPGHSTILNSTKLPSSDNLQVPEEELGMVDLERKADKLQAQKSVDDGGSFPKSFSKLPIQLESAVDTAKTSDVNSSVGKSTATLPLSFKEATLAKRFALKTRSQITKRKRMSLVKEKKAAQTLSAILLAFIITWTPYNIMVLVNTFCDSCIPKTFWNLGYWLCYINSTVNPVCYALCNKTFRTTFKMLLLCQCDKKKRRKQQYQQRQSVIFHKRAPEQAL

[6] = biological target: T2, M4 muscarinic acetylcholine receptor (Homo sapiens, UniProt P08173); conditions: expressed as KD; cited from earlier work
T2 sequence (P08173 1-479): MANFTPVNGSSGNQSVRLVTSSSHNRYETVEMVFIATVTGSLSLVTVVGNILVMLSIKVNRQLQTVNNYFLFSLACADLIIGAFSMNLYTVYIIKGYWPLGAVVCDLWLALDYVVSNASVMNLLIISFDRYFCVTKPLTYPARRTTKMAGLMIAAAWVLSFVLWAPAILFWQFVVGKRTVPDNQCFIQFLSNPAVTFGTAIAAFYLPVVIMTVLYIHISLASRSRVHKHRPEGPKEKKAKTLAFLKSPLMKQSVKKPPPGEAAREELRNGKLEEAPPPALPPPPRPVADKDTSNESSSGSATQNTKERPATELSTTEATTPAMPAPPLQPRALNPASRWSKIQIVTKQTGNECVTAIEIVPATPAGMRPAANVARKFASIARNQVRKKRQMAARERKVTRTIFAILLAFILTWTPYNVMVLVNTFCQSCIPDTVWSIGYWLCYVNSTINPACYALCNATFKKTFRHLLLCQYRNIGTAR

[7] = biological target: T3, M5 muscarinic acetylcholine receptor (Homo sapiens, UniProt P08912); conditions: expressed as KD; cited from earlier work
T3 sequence (P08912 1-532): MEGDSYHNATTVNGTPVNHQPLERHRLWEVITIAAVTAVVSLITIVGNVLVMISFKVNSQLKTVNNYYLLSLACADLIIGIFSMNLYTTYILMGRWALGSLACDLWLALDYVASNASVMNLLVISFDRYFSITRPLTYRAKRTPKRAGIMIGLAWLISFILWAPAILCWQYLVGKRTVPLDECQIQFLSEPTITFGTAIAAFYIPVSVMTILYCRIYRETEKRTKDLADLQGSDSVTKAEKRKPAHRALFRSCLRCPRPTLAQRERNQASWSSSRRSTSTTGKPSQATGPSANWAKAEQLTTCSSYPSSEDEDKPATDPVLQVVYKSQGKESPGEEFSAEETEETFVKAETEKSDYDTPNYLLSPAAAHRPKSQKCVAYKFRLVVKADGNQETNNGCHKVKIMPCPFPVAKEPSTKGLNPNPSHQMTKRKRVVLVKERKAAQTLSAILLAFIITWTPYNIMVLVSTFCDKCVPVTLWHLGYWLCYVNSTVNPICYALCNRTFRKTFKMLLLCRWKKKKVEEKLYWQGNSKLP

[8] = biological target: M1 muscarinic acetylcholine receptor (Homo sapiens, UniProt P11229); conditions: expressed as KD; cited from earlier work
Sequence of M1 muscarinic acetylcholine receptor (P11229 whole entry): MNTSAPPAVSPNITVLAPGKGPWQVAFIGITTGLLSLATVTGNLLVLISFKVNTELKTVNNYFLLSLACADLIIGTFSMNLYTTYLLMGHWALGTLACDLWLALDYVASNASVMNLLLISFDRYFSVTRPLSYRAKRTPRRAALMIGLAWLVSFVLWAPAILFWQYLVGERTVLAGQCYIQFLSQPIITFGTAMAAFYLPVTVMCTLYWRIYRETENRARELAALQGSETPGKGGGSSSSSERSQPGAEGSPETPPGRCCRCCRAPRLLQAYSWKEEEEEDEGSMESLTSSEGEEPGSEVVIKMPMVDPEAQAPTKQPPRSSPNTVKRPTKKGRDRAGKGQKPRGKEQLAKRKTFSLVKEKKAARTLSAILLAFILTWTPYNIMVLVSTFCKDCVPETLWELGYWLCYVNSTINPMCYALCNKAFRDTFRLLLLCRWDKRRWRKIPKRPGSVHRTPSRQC

[9] = test system: 5-HT2C receptor relative to 5-HT2A and D2 receptors; experiment: Relative 5-HT2C affinity (formula I, sum of 5-HT2C/5-HT2A and 5-HT2C/D2 affinity ratios); conditions: Table 2; sum of affinity ratios from data of Table 1
5-HT1A receptor [10] = biological target: 5-HT1A receptor (Homo sapiens, UniProt P08908); conditions: cited from earlier work
Sequence of 5-HT1A receptor (Homo sapiens, UniProt P08908) (P08908 whole entry): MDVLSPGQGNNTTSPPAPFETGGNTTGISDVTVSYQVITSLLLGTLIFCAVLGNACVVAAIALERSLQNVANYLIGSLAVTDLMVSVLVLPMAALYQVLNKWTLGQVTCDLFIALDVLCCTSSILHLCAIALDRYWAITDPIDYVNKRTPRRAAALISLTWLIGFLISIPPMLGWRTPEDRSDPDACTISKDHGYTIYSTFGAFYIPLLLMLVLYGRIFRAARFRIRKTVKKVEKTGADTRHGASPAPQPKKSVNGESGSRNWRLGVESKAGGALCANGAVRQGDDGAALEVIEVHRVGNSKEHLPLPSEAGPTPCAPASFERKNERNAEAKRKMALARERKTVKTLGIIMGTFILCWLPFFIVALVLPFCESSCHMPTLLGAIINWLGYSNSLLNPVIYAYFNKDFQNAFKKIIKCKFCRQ

5-HT2C receptor = biological target: T4, 5-HT2C receptor (Sus scrofa, UniProt K7GSR7); conditions: pig; cited from earlier work
T4 sequence (K7GSR7 1-457): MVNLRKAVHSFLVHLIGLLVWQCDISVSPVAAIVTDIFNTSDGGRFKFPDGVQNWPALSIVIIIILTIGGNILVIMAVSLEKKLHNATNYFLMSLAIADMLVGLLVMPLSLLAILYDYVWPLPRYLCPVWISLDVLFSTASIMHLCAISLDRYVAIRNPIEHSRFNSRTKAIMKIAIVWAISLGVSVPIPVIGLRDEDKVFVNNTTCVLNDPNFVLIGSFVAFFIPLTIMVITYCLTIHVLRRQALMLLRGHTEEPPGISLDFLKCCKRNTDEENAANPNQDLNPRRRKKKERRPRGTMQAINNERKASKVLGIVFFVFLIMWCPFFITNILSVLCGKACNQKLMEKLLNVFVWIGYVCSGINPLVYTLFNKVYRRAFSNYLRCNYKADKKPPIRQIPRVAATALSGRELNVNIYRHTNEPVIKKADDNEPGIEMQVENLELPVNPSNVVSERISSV

5-HT3 receptor = biological target: T5, 5-HT3 receptor (Mus musculus, UniProt P23979); conditions: cited from earlier work
T5 sequence (P23979 24-489): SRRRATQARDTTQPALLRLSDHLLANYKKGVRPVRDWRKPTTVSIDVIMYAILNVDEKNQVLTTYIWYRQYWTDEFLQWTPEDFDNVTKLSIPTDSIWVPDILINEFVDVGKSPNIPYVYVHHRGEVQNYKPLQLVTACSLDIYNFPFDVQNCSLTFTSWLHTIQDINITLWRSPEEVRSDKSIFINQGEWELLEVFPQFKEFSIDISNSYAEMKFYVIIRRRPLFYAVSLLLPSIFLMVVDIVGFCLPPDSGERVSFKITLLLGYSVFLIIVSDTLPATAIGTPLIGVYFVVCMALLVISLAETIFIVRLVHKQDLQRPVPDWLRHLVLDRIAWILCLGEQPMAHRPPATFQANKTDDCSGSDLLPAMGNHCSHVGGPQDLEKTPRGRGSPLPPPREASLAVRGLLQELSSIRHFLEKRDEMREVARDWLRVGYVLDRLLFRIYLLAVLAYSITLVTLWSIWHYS

5-HT7 receptor [11] = biological target: 5-HT7 receptor (Mus musculus, UniProt P32304); conditions: cited from earlier work
Sequence of 5-HT7 receptor (Mus musculus, UniProt P32304) (P32304 whole entry): as the sequence (P32305 whole entry) above, with G27R, P39S, L53P, P279S, S438C counted along it

[12] = biological target: D2-S (short form of D2 receptor) (Homo sapiens, UniProt P14416); conditions: cited from earlier work
Sequence of D2-S (short form of D2 receptor) (P14416 1-414 isoform P14416-2): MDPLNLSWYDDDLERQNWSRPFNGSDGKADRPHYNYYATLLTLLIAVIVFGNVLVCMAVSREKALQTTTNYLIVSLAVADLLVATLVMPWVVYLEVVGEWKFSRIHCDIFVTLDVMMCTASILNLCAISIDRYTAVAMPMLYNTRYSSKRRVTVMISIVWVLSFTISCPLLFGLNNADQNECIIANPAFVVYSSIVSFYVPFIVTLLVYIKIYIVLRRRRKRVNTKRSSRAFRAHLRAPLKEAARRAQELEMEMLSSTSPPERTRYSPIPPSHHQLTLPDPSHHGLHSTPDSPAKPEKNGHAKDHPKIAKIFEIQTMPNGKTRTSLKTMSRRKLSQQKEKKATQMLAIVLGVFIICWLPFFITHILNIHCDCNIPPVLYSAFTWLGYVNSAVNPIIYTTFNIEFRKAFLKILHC

[13] = biological target: D2-L (long form of D2 receptor) (Homo sapiens, UniProt P14416); conditions: cited from earlier work
D4 dopamine receptor [14] = biological target: T6, D4 dopamine receptor (Homo sapiens, UniProt P21917); conditions: human; cited from earlier work
T6 sequence (P21917 1-419): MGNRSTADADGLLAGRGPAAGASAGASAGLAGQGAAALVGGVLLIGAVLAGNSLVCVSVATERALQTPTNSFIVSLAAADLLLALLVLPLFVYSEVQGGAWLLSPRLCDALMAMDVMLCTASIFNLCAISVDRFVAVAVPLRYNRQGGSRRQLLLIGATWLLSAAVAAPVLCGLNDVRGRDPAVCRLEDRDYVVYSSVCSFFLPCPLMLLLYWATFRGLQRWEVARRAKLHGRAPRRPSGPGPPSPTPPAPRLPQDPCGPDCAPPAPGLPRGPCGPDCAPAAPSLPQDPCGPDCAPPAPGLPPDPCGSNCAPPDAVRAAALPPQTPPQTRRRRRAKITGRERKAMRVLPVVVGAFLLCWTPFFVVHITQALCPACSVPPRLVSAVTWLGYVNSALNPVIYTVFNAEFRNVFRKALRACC

[15] = biological target: mACh, muscarinic acetylcholine receptor; conditions: rat; cited from earlier work
α1-adrenoceptor [16] = conditions: species for α1 not given; cited from earlier work
α2-adrenoceptor [17] = conditions: species for α2 not stated; cited from earlier work
sigma, σ receptor = conditions: guinea-pig; cited from earlier work
H1 histamine receptor = H1 histamine receptor (Cavia porcellus, UniProt P31389); conditions: guinea-pig; cited from earlier work
Sequence of H1 histamine receptor (P31389 whole entry): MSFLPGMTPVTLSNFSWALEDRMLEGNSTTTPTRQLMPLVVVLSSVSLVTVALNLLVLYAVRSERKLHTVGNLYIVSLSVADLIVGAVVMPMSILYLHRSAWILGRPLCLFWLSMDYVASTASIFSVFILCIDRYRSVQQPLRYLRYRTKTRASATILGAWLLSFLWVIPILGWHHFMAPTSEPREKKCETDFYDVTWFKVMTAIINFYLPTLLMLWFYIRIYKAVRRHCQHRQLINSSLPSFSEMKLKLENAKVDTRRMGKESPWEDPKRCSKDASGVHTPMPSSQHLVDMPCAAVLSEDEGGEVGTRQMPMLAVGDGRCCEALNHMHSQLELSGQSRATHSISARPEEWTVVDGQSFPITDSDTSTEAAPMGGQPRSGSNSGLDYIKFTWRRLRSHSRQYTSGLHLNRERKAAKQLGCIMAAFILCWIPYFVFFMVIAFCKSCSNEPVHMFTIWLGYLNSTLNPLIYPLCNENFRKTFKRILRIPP

D1 dopamine receptor [18] = biological target: D1 dopamine receptor (Homo sapiens, UniProt P21728); conditions: cited from earlier work
Sequence of D1 dopamine receptor (Homo sapiens, UniProt P21728) (P21728 whole entry): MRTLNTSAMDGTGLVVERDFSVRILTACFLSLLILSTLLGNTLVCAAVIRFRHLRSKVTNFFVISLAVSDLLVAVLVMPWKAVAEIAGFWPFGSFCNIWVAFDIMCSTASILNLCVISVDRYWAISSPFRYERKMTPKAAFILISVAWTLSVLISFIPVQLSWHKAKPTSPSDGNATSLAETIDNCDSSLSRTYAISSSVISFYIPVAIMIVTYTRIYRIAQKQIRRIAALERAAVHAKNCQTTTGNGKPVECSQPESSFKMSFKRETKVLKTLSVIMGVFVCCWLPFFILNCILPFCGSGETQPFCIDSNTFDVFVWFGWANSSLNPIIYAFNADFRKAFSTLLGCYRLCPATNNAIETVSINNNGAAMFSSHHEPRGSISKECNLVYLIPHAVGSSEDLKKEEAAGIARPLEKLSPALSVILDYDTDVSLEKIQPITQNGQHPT

[19] = biological target: mACh, muscarinic acetylcholine receptor; conditions: human, expressed as KD; cited from earlier work
α1-adrenoceptor [20] = conditions: human, expressed as KD; cited from earlier work
α2-adrenoceptor [21] = conditions: human, expressed as KD; cited from earlier work
5-HT1A receptor [22] = biological target: T7, 5-HT1A receptor (Rattus norvegicus, UniProt P19327); conditions: cited from earlier work
T7 sequence (P19327 1-422): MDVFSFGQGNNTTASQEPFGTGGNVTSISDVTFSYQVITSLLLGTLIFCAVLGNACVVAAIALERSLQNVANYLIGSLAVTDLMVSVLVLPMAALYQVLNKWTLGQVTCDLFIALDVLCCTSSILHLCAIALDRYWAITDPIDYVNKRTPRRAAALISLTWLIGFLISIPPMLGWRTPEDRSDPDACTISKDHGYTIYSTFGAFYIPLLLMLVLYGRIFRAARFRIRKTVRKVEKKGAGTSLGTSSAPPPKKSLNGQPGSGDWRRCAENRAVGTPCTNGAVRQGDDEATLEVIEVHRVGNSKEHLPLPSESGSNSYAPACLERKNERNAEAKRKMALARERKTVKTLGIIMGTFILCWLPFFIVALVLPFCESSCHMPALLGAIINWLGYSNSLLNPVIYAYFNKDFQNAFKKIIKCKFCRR

Structure (SMILES)	(2C/2A) + (2C/D2) [9]	5-HT6 affinity value (−logKi) (5-HT6 receptor)	5-HT7 affinity value (−logKi) (5-HT7 receptor [1])	D1 affinity value (−logKi) (D1 dopamine receptor [2])	D4 affinity value (−logKi) (D4 dopamine receptor [3])	M2 affinity value (−log KD) [4]	M3 affinity value (−log KD) [5]	M4 affinity value (−log KD) [6]	M5 affinity value (−log KD) [7]	M1 affinity value (−log KD) [8]	5-HT2C affinity value (−logKi) (5-HT2C receptor)	D4 affinity value (−logKi) (D4 dopamine receptor [14])	mACh affinity value (−logKi) [15]	α1 affinity value (−logKi) (α1-adrenoceptor [16])	sigma affinity value (−logKi) (sigma, σ receptor)	H1 affinity value (−logKi) (H1 histamine receptor)	other results
CN1CCN(C2=Nc3ccccc3Oc3ccc(Cl)cc32)CC1 [Loxapine]				7.5^18	7.9^4		6.4^15	6.5^15	6.6^15	7.2^15							5-HT1A affinity value (−logKi) (5-HT1A receptor [10]): 5.5^5
NC(=O)C1(N2CCCCC2)CCN(CCCC(=O)c2ccc(F)cc2)CC1 [Pipamperone]	1.83										6.9^6	8.3^6	<5.3^6	7.2^6	7.3^6	<5.3^6	5-HT3 affinity value (−logKi) (5-HT3 receptor): <5.3^6; 5-HT7 affinity value (−logKi) (5-HT7 receptor [11]): 6.8^6; D2-S affinity value (−logKi) [12]: 7.0^6; D2-L affinity value (−logKi) [13]: 6.9^6; α2 affinity value (−logKi) (α2-adrenoceptor [17]): 6.2^6
CN(C)CCOC1=Cc2ccccc2Sc2ccc(Cl)cc21 [Zotepine]	2.02	9.0^2	8.8^2		8.2^4			7.1^15	6.6^15		8.5^6	7.4^6	6.3^6	8.5^6	6.3^6	8.5^6	5-HT1A affinity value (−logKi) (5-HT1A receptor [22]): 6.5^6

Further lines, with some results ahead:

(2C/2A) + (2C/D2) [9]	Structure (SMILES)	5-HT6 affinity value (−logKi) (5-HT6 receptor)	5-HT7 affinity value (−logKi) (5-HT7 receptor [1])	D1 affinity value (−logKi) (D1 dopamine receptor [2])	D4 affinity value (−logKi) (D4 dopamine receptor [3])	M2 affinity value (−log KD) [4]	M3 affinity value (−log KD) [5]	M4 affinity value (−log KD) [6]	M5 affinity value (−log KD) [7]	M1 affinity value (−log KD) [8]	5-HT2C affinity value (−logKi) (5-HT2C receptor)	D4 affinity value (−logKi) (D4 dopamine receptor [14])	mACh affinity value (−logKi) [15]	α1 affinity value (−logKi) (α1-adrenoceptor [16])	sigma affinity value (−logKi) (sigma, σ receptor)	H1 affinity value (−logKi) (H1 histamine receptor)	other results
2.13	CN1CCN(C2=Nc3cc(F)ccc3Cc3ccccc32)CC1 [Fluperlapine]	7.8^2	8.3^2	6.8^8	6.9^4	7.1^15	7.4^15	7.9^15	7.7^15	8.1^15							5-HT2A/D2 (5-HT2A/D2): 1.25; 5-HT2C/5-HT2A (2C/2A) (5-HT2C/5-HT2A): 0.95; 5-HT2C/D2 (2C/D2) (5-HT2C/D2): 1.18
1.43	CN1CCN(CC/C=C2/c3ccccc3Sc3ccc(S(=O)(=O)N(C)C)cc32)CC1 [Thiothixene]	7.4^2	7.9^2		7.1^4	5.7^15	5.8^15	5.8^15	5.4^15								D1 affinity value (−logKi) (D1 dopamine receptor [18]): 6.5^9; mACh affinity value (−log KD) [19]: 5.5^16; α1 affinity value (−log KD) (α1-adrenoceptor [20]): 8.0^16; α2 affinity value (−log KD) (α2-adrenoceptor [21]): 6.7^16
